From patent US20260078105A1, “Novel Aminocarboxymuconate Semialdehyde Decarboxylase Inhibitors” (OrsoBio, Inc., priority 2023, published 2026)

Target: T1, ACMSD (Mus musculus, UniProt Q8R519)
T1 construct: endogenous in cells; host or cells: primary mouse hepatocytes (frozen, commercial)
Assay: Quinolinic acid (QA) levels in primary mouse hepatocytes by LC-MS/MS, as indicator of ACMSD inhibition
Format: cell-based
Conditions: 3 μM compound, six hours, 500 μM tryptophan, ratio of QA formed with compound versus wells with no compound (DMSO)
Method: Frozen primary mouse hepatocytes were thawed as per manufacturer's instructions and seeded at a density of 300,000 cells/well of a 6-well plate. After resting for a few hours, the cells were incubated with 3 μM of compound resuspended in DMSO in serum-free William's E media supplemented with 500 μM of tryptophan for six hours. After six hours, the cells were washed with phosphate buffer saline (PBS) and harvested in pre-cooled crashing solution (acetonitrile:methanol:water (40%:40%:20% w/w)) containing internal standard (telmisartan and/or verapamil). Ammonium bicarbonate (15%; 30 μL) was added to the lysates, incubated on dry ice for 10 min, centrifuged for 10 min at 14000 rpm and QA levels were quantified using optimized LC-MS/MS methods using an Atlantis, T3 3 μm, 150×4.6 mm column, and 0.1% formic acid in water and 0.2% formic acid in methanol as mobile phase A and B, respectively. The results are shown in Table 1 as a ratio of the amount of QA formed with compound versus the amount of QA in wells with no compound (DMSO). ACMSD is at the junction of the metabolic pathway of tryptophan. Increased QA levels or decreased PA levels would both be indicative of inhibition of ACMSD. When mouse hepatocytes are treated with the compounds of the invention, increased QA levels are observed and are therefore inhibitors of ACMSD.

T1 sequence (Q8R519 whole entry): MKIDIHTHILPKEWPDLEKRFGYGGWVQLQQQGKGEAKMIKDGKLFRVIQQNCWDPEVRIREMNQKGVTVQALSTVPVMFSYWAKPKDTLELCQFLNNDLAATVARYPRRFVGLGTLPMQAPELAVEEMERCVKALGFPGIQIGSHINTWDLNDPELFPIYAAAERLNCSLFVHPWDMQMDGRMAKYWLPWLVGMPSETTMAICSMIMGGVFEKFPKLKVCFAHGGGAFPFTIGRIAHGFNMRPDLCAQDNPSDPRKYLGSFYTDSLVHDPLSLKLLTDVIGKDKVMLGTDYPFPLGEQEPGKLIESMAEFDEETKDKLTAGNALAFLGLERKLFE

| SMILES | Quinolinic acid ratio (Range) |
| --- | --- |
| O=C(O)c1cccc(CSc2nc(-c3ccccc3)nc(=O)[nH]2)c1 [Compound 128, 3-(((6-oxo-4-phenyl-1,6-dihydro-1,3,5-triazin-2-yl)thio)methyl)benzoic acid] | * (2 to 4) |
| N#Cc1c(SCc2nnn[nH]2)[nH]c(=O)c(C(=O)Nc2ccccc2)c1-c1ccc(Cl)cc1 [Compound 124, 6-(((1H-tetrazol-5-yl)methyl)thio)-4-(4-chlorophenyl)-5-cyano-2-oxo-N-phenyl-1,2-dihydropyridine-3-carboxamide] | ** (<4 to 6) |
| N#Cc1c(SCc2nnn[nH]2)[nH]c(=O)c(C(=O)N2CCCC2)c1-c1ccc(Cl)cc1 [Compound 125, 2-(((1H-tetrazol-5-yl)methyl)thio)-4-(4-chlorophenyl)-6-oxo-5-(pyrrolidine-1-carbonyl)-1,6-dihydropyridine-3-carbonitrile] | ** (<4 to 6) |
| CNC(=O)c1c(-c2ccc(Cl)cc2)c(C#N)c(SCc2nnn[nH]2)[nH]c1=O [Compound 127, 6-(((1H-tetrazol-5-yl)methyl)thio)-4-(4-chlorophenyl)-5-cyano-N-methyl-2-oxo-1,2-dihydropyridine-3-carboxamide] | * (2 to 4) |
| N#Cc1c(SCc2nnn[nH]2)[nH]c(=O)c(C(=O)N2CCCC2)c1-c1cccc(-c2ccccc2)c1 [Compound 126, 2-(((1H-tetrazol-5-yl)methyl)thio)-4-([1,1′-biphenyl]-3-yl)-6-oxo-5-(pyrrolidine-1-carbonyl)-1,6-dihydropyridine-3-carbonitrile] | ** (<4 to 6) |
| N#Cc1c(SCc2nnn[nH]2)[nH]c(=O)c(Cl)c1-c1cccc(C(=O)Nc2ccccc2)c1 [Compound 123, 3-(6-(((1H-tetrazol-5-yl)methyl)thio)-3-chloro-5-cyano-2-oxo-1,2-dihydropyridin-4-yl)-N-phenylbenzamide] | ** (<4 to 6) |
| N#Cc1c(-c2ccccc2)nc(=O)[nH]c1SCC(=O)O [Compound 131, 2-((5-cyano-2-oxo-6-phenyl-2,3-dihydropyrimidin-4-yl)thio)acetic acid] | * (2 to 4) |
| CC(C)Oc1nc(SCc2nnn[nH]2)[nH]c(=O)n1 [Compound 133, 6-(((1H-tetrazol-5-yl)methyl)thio)-4-isopropoxy-1,3,5-triazin-2(1H)-one] | — (<2) |
